Results reported in patent US4965280A, “Antifungal carbinols” (E. I. Du Pont de Nemours and Company, priority 1989, dated 1990).
≈ marks a conversion by molar mass, not a printed value. Where two headings read alike, the source gives them in different places.

Experiments:
[1] = tested on: Pyricularia oryzae; assay: whole plant or invertebrate; format: in vivo; settings: Pyricularia oryzae, 120 h; for pest or weed control at 100 ppm: read-out: disease control rating, Ex. E, 100 PPM
[2] = tested on: Fusarium oxysporum f. sp. cucumerinum; assay: Example L cucumber wilt; format: in vivo; settings: 336 h, 5 kg/ha, read-out: disease control rating, Ex. L
Experimental: […] Seeds and soil were then inoculated with a mixture of sand, cereal and mycelium of the fungus Fusarium oxysporum f. sp. cucumerinum, causal agent of cucumber wilt, and incubated in a growth chamber at 30° C. for 14 days. Disease ratings were then made.

[3] = tested on: Venturia inaequalis; assay: Example A apple scab; format: in vivo; settings: read-out: disease control rating, Ex. A
In short: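 Spray application to run-off on apple seedlings; compound at 100 or 20 ppm in water with 250 ppm TREM 014 (polyhydric alcohol esters) and 6% acetone of final volume.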

[4] = tested on: Puccinia recondita; assay: Example G wheat leaf rust; format: in vivo; settings: read-out: disease control rating, Ex. G
[5] = tested on: Cercosporidium personatum; assay: Example B Peanut Late Leafspot; format: in vivo; settings: Nothopassalora personata, read-out: disease control rating, Ex. B
In short: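 Spray suspensions at 100 or 20 ppm, prepared from acetone solutions (acetone 6% of final volume) in water carrying 250 ppm of a polyhydric alcohol ester surfactant, were applied to peanut seedlings until run-off.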

[6] = tested on: Sclerotium rolfsii; assay: Example M southern blight; format: in vivo; settings: Agroathelia rolfsii, 336 h; 5 kg/ha; read-out: disease control rating, Ex. M
Experimental: […] Seeds and soil were then inoculated with a mixture of sand, cereal and mycelium of the fungus Sclerotium rolfsii, causal agent of sourthern blight, and incubated in a growth chamber at 30° C. for 14 days. Disease ratings were then made.

[7] = tested on: Rhizoctonia solani; assay: Example F rice sheath blight; format: in vivo; settings: Rhizoctonia solani, 144 h, read-out: disease control rating, Ex. F
In short: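 Foliar run-off spray, rice seedlings: compound at 100 or 20 ppm in aqueous 250 ppm polyhydric alcohol ester surfactant, acetone 6% v/v final.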

[8] = tested on: Botrytis cinerea; assay: Example C bean grey mold; format: in vivo; settings: Botrytis cinerea, 24 h, read-out: disease control rating, Ex. C
In short: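 Spray rates: 100 and 20 ppm. Vehicle: purified water with 6% acetone by final volume plus 250 ppm TREM 014 (polyhydric alcohol esters). Host plants, broad bean seedlings, were wetted until run-off.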

[9] = tested on: Candida albicans ATCC 11651; assay: In vitro antifungal MIC, microtiter broth dilution; settings: Candida albicans, ATCC11651, 24 h, read-out: MIC values, C. albicans, 30°, 24 hours
[10] = tested on: Aspergillus fumigatus ATCC 28214; assay: In vitro antifungal MIC, microtiter broth dilution; settings: Aspergillus fumigatus, ATCC28214, 24 h, read-out: MIC values, A. fumigatus, 30°, 24 hours
[11] = tested on: Plasmorpara viticola; assay: Example I grape downy mildew; format: in vivo; settings: read-out: disease control rating, Ex. I
In short: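 Grape seedlings sprayed to run-off; test suspension 100 or 20 ppm compound, acetone 6% v/v final, 250 ppm TREM 014 in purified water.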

[12] = tested on: Erysiphe graminis f. sp. tritici; assay: Example D wheat powdery mildew; format: in vivo; settings: Blumeria graminis, 144 h, read-out: disease control rating, Ex. D
In short: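 Seedling wheat was treated by spraying to run-off; formulation used acetone as co-solvent (6% final) and TREM 014 surfactant at 250 ppm, with compound at 100 or 20 ppm.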

[13] = tested on: Phytophthora infestans; assay: whole plant or invertebrate; format: in vivo; settings: Phytophthora infestans, in Solanum lycopersicum, read-out: disease control rating, Ex. H, 100 PPM
[14] = tested on: Rhizoctonia solani; assay: Example K cotton blight; format: in vivo; settings: 336 h, 5 kg/ha, read-out: disease control rating, Ex. K
Experimental: […] Seeds and soil were then inoculated with a mixture of sand, cereal and mycelium of the fungus Rhizoctonia solani, causal agent of cotton blight, and incubated in a growth chamber at 30° C. for 14 days. Disease ratings were then made.

[15] = tested on: Candida albicans ATCC 11651; assay: In vivo systemic Candida infection in mice, primary assay; parameters: species or system Candida albicans; CF-1 female mice; settings: Candida albicans, 150 mg/kg per day, read-out: % Survival
In short: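 CF-1 female mice (20 g, 10 per group) were infected IV with 0.2 ml of 1×10^7/ml C. albicans ATCC 11651, then given test compound subcutaneously at 50 or 150 mg/kg/day at 1 and 6 h post-infection and once daily for three more days. Survival was followed for 21 days against infected untreated mice; ≥70% protection at 14 days was scored active.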

[16] = tested on: Pythium aphanadermatum; assay: Example J cucumber damping off; format: in vivo; settings: Pythium, 336 h; 5 kg/ha; read-out: disease control rating, Ex. J
In short: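 This cucumber damping-off test used soil and seeds infested with a sand–cereal preparation carrying mycelium of Pythium aphanadermatum. Incubation took place in a growth chamber held at 30° C. for 14 days. Afterwards, the extent of disease was scored as a disease control rating.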

| SMILES | pest or weed control at 100 ppm [1] | pest or weed control at 5000 g/ha [2] | pest or weed control at 100 ppm [3] | pest or weed control at 100 ppm [4] | pest or weed control at 100 ppm [5] | pest or weed control at 5000 g/ha [6] | pest or weed control at 100 ppm [7] | pest or weed control at 100 ppm [8] | MIC [9] | MIC [10] | pest or weed control at 100 ppm [11] | pest or weed control at 100 ppm [12] | pest or weed control at 100 ppm [13] | pest or weed control at 5000 g/ha [14] | responders at 150 mg/kg ([15]; ATCC11651, 168 h, day 7) | responders at 150 mg/kg ([15]; ATCC11651, 336 h, day 14) | responders at 150 mg/kg ([15]; ATCC11651, 504 h, day 21) | pest or weed control at 5000 g/ha [16] | other results |
| --- | --- | --- | --- | --- | --- | --- | --- | --- | --- | --- | --- | --- | --- | --- | --- | --- | --- | --- | --- |
| C=C(c1ccc(Cl)cc1)C(O)(Cn1cncn1)c1ccc(Cl)cc1 (centres unmarked) [Example 27] | 95% | 0% | 62% | 100% | 100% | 0% | 100% | 88% | ≤ 0.4 µg/mL | 12.5 µg/mL (≈ 34.7 µM) | 84% | 98% | 24% | 0% | 100% | 100% | 100% | 0% | – |
| C=C(c1ccc(F)cc1)C(O)(Cn1cncn1)c1ccc(Cl)c(Cl)c1 (centres unmarked) [Example 651, 2-(3,4-Dichlorophenyl)-3-(4-fluorophenyl)-1-(1H-1,2,4-triazol-1-yl)-3-buten-2-ol] | 0% | 0% | – | – | – | 0% | 62% | 42% | 0.8 µg/mL (≈ 2.12 µM) | 100 µg/mL (≈ 264 µM) | 46% | – | 0% | 0% | 100% | 50% | 20% | 0% | pest or weed control at 20 ppm ([1]; read-out: disease control rating, Ex. E, 20 PPM): 0%; pest or weed control at 20 ppm ([3]; 20 PPM): 67%; pest or weed control at 20 ppm ([4]; 20 PPM): 100%; pest or weed control at 20 ppm ([5]; 20 PPM): 0%; pest or weed control at 20 ppm ([7]; 20 PPM): 0%; pest or weed control at 20 ppm ([8]; 20 PPM): 7%; pest or weed control at 20 ppm ([12]; 20 PPM): 67% |
| C=C(c1ccc(C(F)(F)F)cc1)C(O)(Cn1cncn1)c1ccc(F)cc1 (centres unmarked) [Example 65] | 30% | 0% | 34% | 100% | 96% | 0% | 62% | 94% | 0.2 µg/mL (≈ 0.53 µM) | 100 µg/mL (≈ 265 µM) | 0% | 85% | 0% | 0% | 100% | 70% | 50% | 0% | – |
| C=C(c1ccc(F)cc1)C(O)(Cn1cncn1)c1ccc(-c2ccccc2)cc1 (centres unmarked) [Example 657] | 49% | 0% | 62% | 100% | 100% | 0% | 97% | 81% | 0.4 µg/mL (≈ 1.04 µM) | 100 µg/mL (≈ 259 µM) | 37% | 98% | 24% | 0% | 0% | 0% | 0% | 0% | – |
| C=CCOC(Cn1cncn1)(C(=C)c1ccc(F)cc1)c1ccc(F)cc1 (centres unmarked) [Example 360] | 74% | 0% | 88% | 93% | 100% | 0% | 49% | 71% | 0.8 µg/mL (≈ 2.18 µM) | 100 µg/mL (≈ 272 µM) | 0% | 86% | 0% | 0% | 100% | 60% | 40% | 0% | – |
| C=C(c1cccc(Cl)c1)C(O)(Cn1cncn1)c1ccc(Cl)cc1 (centres unmarked) [Example 41] | 7% | 0% | 100% | 100% | 100% | 0% | 97% | 96% | 0.4 µg/mL (≈ 1.11 µM) | 50 µg/mL (≈ 139 µM) | 100% | 98% | 0% | 0% | 100% | 100% | – | 0% | – |
| C=C(c1ccc(F)cc1)C(O)(Cn1ncnc1S)c1ccccc1F (centres unmarked) [Example 1300] | 58% | 0% | 100% | 100% | 100% | 0% | 81% | 93% | ≤ 0.4 µg/mL | 6.3 µg/mL (≈ 17.5 µM) | 0% | 92% | 0% | 0% | – | – | – | 0% | – |
| C=C(c1ccccc1)C(O)(Cn1ncnc1SCCCC)c1ccc(F)cc1 (centres unmarked) [Example 1459] | 17% | 0% | 72% | 65% | 70% | 0% | 0% | 65% | > 100 µg/mL | > 100 µg/mL | 74% | 31% | 0% | 0% | – | – | – | 0% | – |
